Target: T1, glucocorticoid receptor (GR) (Homo sapiens, UniProt P04150)
T1 construct: endogenous in cells; host or cells: HeLa (ATCC) cell lysate supernatant
T1 sequence (P04150 1-777): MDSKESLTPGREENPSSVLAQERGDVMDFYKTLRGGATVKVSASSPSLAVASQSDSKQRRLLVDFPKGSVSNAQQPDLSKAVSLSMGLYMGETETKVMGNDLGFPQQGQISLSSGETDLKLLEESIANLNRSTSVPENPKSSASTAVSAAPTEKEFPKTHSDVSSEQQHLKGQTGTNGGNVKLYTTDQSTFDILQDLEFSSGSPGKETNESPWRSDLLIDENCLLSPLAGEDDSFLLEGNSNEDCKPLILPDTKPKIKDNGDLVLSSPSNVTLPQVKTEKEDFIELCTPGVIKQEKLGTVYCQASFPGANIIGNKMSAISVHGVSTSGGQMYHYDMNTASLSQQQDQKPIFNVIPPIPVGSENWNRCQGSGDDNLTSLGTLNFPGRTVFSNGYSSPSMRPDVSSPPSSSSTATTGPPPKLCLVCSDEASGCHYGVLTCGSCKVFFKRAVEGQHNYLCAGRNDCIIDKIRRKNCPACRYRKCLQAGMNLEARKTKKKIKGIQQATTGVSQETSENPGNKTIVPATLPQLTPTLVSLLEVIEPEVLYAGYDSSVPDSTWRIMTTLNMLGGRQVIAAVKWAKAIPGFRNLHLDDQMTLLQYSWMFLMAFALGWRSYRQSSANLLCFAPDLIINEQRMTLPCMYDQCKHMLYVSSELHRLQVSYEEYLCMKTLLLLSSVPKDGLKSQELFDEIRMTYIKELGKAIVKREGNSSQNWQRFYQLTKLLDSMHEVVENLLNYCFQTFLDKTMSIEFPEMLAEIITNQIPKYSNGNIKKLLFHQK
Test: Ligand binding assay (GR BIND), 3H-dexamethasone displacement, HeLa cell lysate
Conditions: Table 1; HeLa cell lysate, 3H-DEX
Summary of the method: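 HeLa cell lysate supernatant in TEGM (pH 7.2, molybdate) incubated overnight at 4 °C with 3H-dexamethasone trace (6 nM stock) and serially diluted compound, 2% EtOH final. Bound receptor captured on hydroxylapatite, filtered and counted by scintillation; IC50 calculated with dexamethasone as reference.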

Row | Structure (SMILES) | Ki [nM]
1 | CCS(=O)(=O)Nc1ccccc1CC[C@]1(O)CCC2=Cc3c(cnn3-c3ccc(F)cc3)C[C@@]21C [Example 114, N-(2-{2-[(4αS,5R)-1-(4-fluorophenyl)-5-hydroxy-4α-methyl-1,4,4α,5,6,7-hexahydrocyclopenta[f]indazol-5-yl]ethyl}phenyl)ethanesulfonamide] | 2.77
2 | CCS(=O)(=O)c1ccccc1CC[C@]1(O)CCC2=Cc3c(cnn3-c3ccc(F)cc3)C[C@@]21C [Example 143, (4αS,5R)-5-{2-[2-(ethylsulfonyl)phenyl]ethyl}-1-(4-fluorophenyl)-4α-methyl-1,4,4α,5,6,7-hexahydrocyclopenta[f]indazol-5-ol] | 1.44
3 | C[C@]12Cc3cnn(-c4ccc(F)cc4)c3C=C1CC[C@@]2(O)CCc1cccc(F)c1CO [Example 148, (4αS,5R)-5-{2-[3-fluoro-2-(hydroxymethyl)phenyl]ethyl}-1-(4-fluorophenyl)-4α-methyl-1,4,4α,5,6,7-hexahydrocyclopenta[f]indazol-5-ol] | 0.67
4 | C[C@]12Cc3cnn(-c4ccc(F)cc4)c3C=C1CC[C@@]2(O)CCc1cccc(F)c1[C@H](N)C(F)(F)F [Example 151, (4αS,5R)-5-(2-{2-[(1S)-1-amino-2,2,2-trifluoroethyl]-3-fluorophenyl}ethyl)-1-(4-fluorophenyl)-4α-methyl-1,4,4α,5,6,7-hexahydrocyclopenta[f]indazol-5-ol] | 1.74
5 | C[C@]12Cc3cnn(-c4ccc(F)cc4)c3C=C1CC[C@@]2(O)CCc1ccccc1C(=O)N1CC(=O)C1 [Example 156, 1-(2-{2-[(4αS,5R)-1-(4-fluorophenyl)-5-hydroxy-4α-methyl-1,4,4α,5,6,7-hexahydrocyclopenta[f]indazol-5-yl]ethyl}benzoyl)azetidin-3-one] | 2.9
6 | C[C@]12Cc3cnn(-c4ccc(F)cc4)c3C=C1CC[C@@]2(O)CCc1ccc(F)cc1C(N)=O [Example 159, 5-fluoro-2-{2-[(4αS,5R)-1-(4-fluorophenyl)-5-hydroxy-4α-methyl-1,4,4α,5,6,7-hexahydrocyclopenta[f]indazol-5-yl]ethyl}benzamide] | 2.96
7 | C[C@]12Cc3cnn(-c4ccc(F)cc4)c3C=C1CC[C@@]2(O)/C=C/c1ccccc1S(N)(=O)=O [Example 160, 2-{(E)-2-[(4αS,5R)-1-(4-fluorophenyl)-5-hydroxy-4α-methyl-1,4,4α,5,6,7-hexahydrocyclopenta[f]indazol-5-yl]vinyl}benzenesulfonamide] | 0.94
8 | C[C@]12Cc3cnn(-c4ccc(F)cc4)c3C=C1CC[C@@]2(O)CCc1ccc(Cl)cc1C(N)=O [Example 170, 5-chloro-2-{2-[(4αS,5R)-1-(4-fluorophenyl)-5-hydroxy-4α-methyl-1,4,4α,5,6,7-hexahydrocyclopenta[f]indazol-5-yl]ethyl}benzamide] | 2.12
9 | C[C@]12Cc3cnn(-c4ccc(F)c(F)c4)c3C=C1CC[C@@]2(O)CCc1ccccc1C(N)=O [Example 172, 2-{2-[(4αS,5R)-1-(3,4-difluorophenyl)-5-hydroxy-4α-methyl-1,4,4α,5,6,7-hexahydrocyclopenta[f]indazol-5-yl]ethyl}benzamide] | 6.59
10 | COc1cccc(CC[C@]2(O)CCC3=Cc4c(cnn4-c4ccc(F)cc4)C[C@@]32C)c1C(N)=O [Example 189, 2-{2-[(4αS,5R)-1-(4-fluorophenyl)-5-hydroxy-4α-methyl-1,4,4α,5,6,7-hexahydrocyclopenta[f]indazol-5-yl]ethyl}-6-methoxybenzamide] | 1.55
11 | C[C@]12Cc3cnn(-c4ccc(F)cc4)c3C=C1CC[C@@]2(O)CCc1cccc(F)c1CC(N)=O [Example 194, 2-(2-fluoro-6-{2-[(4αS,5R)-1-(4-fluorophenyl)-5-hydroxy-4α-methyl-1,4,4α,5,6,7-hexahydrocyclopenta[f]indazol-5-yl]ethyl}phenyl)acetamide] | 1.48
12 | CCC(O)(C(N)=O)c1ccccc1CC[C@]1(O)CCC2=Cc3c(cnn3-c3ccc(F)cc3)C[C@@]21C (stereo partly drawn) [Example 199, 2-(2-{2-[(4αS,5R)-1-(4-fluorophenyl)-5-hydroxy-4α-methyl-1,4,4α,5,6,7-hexahydrocyclopenta[f]indazol-5-yl]ethyl}phenyl)-2-hydroxybutanamide] | 4.55
13 | CC(C)C(O)(C(N)=O)c1ccccc1CC[C@]1(O)CCC2=Cc3c(cnn3-c3ccc(F)cc3)C[C@@]21C (stereo partly drawn) [Example 201, 2-(2-{2-[(4αS,5R)-1-(4-fluorophenyl)-5-hydroxy-4α-methyl-1,4,4α,5,6,7-hexahydrocyclopenta[f]indazol-5-yl]ethyl}phenyl)-2-hydroxy-3-methylbutanamide] | 5.62

More lines, in order of falling Ki, values ahead:

Row | Ki [nM] | Structure (SMILES)
14 | 4.76 | Cc1ccc(C(N)=O)c(CC[C@]2(O)CCC3=Cc4c(cnn4-c4ccc(F)cc4)C[C@@]32C)c1 [Example 174, 2-{2-[(4αS,5R)-1-(4-fluorophenyl)-5-hydroxy-4α-methyl-1,4,4α,5,6,7-hexahydrocyclopenta[f]indazol-5-yl]ethyl}-4-methylbenzamide]
15 | 2.66 | CN(C)S(=O)(=O)Nc1c(F)cccc1CC[C@]1(O)CCC2=Cc3c(cnn3-c3ccc(F)cc3)C[C@@]21C [Example 113, N′-(2-fluoro-6-{2-[(4αS,5R)-1-(4-fluorophenyl)-5-hydroxy-4α-methyl-1,4,4α,5,6,7-hexahydrocyclopenta[f]indazol-5-yl]ethyl}phenyl)-N,N-dimethylsulfamide]
16 | 2.6 | C[C@]12Cc3cnn(-c4ccc(F)cc4)c3C=C1CC[C@@]2(O)CCc1cccc(F)c1[C@@H](N)C(F)(F)F [Example 152, (4αS,5R)-5-(2-{2-[(1R)-1-amino-2,2,2-trifluoroethyl]-3-fluorophenyl}ethyl)-1-(4-fluorophenyl)-4α-methyl-1,4,4α,5,6,7-hexahydrocyclopenta[f]indazol-5-ol]
17 | 2.51 | Cc1cccc(CC[C@]2(O)CCC3=Cc4c(cnn4-c4cccc(F)c4)C[C@@]32C)c1C(N)=O [Example 191, 2-{2-[(4αS,5R)-1-(3-fluorophenyl)-5-hydroxy-4α-methyl-1,4,4α,5,6,7-hexahydrocyclopenta[f]indazol-5-yl]ethyl}-6-methylbenzamide]
18 | 2.16 | C[C@]12Cc3cnn(-c4ccc(F)c(F)c4)c3C=C1CC[C@@]2(O)CCc1cccc(F)c1C(N)=O [Example 168, 2-{2-[(4α,5R)-1-(3,4-difluorophenyl)-5-hydroxy-4α-methyl-1,4,4α,5,6,7-hexahydrocyclopenta[f]indazol-5-yl]ethyl}-6-fluorobenzamide]
19 | 1.93 | C[C@]12Cc3cnn(-c4ccc(Cl)cc4)c3C=C1CC[C@@]2(O)CCc1cccc(F)c1C(N)=O [Example 185, 2-{2-[(4αS,5R)-1-(4-chlorophenyl)-5-hydroxy-4α-methyl-1,4,4α,5,6,7-hexahydrocyclopenta[f]indazol-5-yl]ethyl}-6-fluorobenzamide]
20 | 1.5 | CC(=O)Cc1ccccc1CC[C@]1(O)CCC2=Cc3c(cnn3-c3ccc(F)cc3)C[C@@]21C [Example 157, 1-(2-{2-[(4αS,5R)-1-(4-fluorophenyl)-5-hydroxy-4α-methyl-1,4,4α,5,6,7-hexahydrocyclopenta[f]indazol-5-yl]ethyl}phenyl)acetone]
21 | 1.41 | C[C@]12Cc3cnn(-c4ccc(F)cc4)c3C=C1CC[C@@]2(O)CCc1cccc(Cl)c1CC(N)=O [Example 197, 2-(2-chloro-6-{2-[(4αS,5R)-1-(4-fluorophenyl)-5-hydroxy-4α-methyl-1,4,4α,5,6,7-hexahydrocyclopenta[f]indazol-5-yl]ethyl}phenyl)acetamide]
22 | 1.32 | C[C@]12Cc3cnn(-c4ccc(F)cc4)c3C=C1CC[C@@]2(O)CCc1ccccc1S(=O)(=O)C1CC1 [Example 144, (4αS,5R)-5-{2-[2-(cyclopropylsulfonyl)phenyl]ethyl}-1-(4-fluorophenyl)-4α-methyl-1,4,4α,5,6,7-hexahydrocyclopenta[f]indazol-5-ol]
23 | 0.84 | CN(C)S(=O)(=O)c1ccccc1CC[C@]1(O)CCC2=Cc3c(cnn3-c3ccc(F)cc3)C[C@@]21C [Example 138, 2-{2-[(4αS,5R)-1-(4-fluorophenyl)-5-hydroxy-4α-methyl-1,4,4α,5,6,7-hexahydrocyclopenta[f]indazol-5-yl]ethyl}-N,N-dimethylbenzenesulfonamide]
24 | 0.17 | C[C@]12Cc3cnn(-c4ccc(F)cc4)c3C=C1CC[C@@]2(O)CCc1ccc(F)cc1C#N [Example 163, 5-fluoro-2-{2-[(4αS,5R)-1-(4-fluorophenyl)-5-hydroxy-4α-methyl-1,4,4α,5,6,7-hexahydrocyclopenta[f]indazol-5-yl]ethyl}benzonitrile]

From patent publication US8119681B2, “2-[1-phenyl-5-hydroxy or methoxy-4alpha-methyl-hexahydrocyclopenta [ƒ]indazole-5-YL]ethyl phenyl derivatives as glucocorticoid receptor ligands” (Merck Sharp & Dohme Corp., priority 2006, dated 2012)
